According to US20170157112A1, “HIF INHIBITORS” (UCL BUSINESS PLC, priority 2013, published 2017):
Like-named read-outs stand apart in the source and are kept apart here.

Tests used:
HIF activity = assay: U2OS-HRE-luc cell-based HRE-luciferase reporter assay; conditions: for inhibition of luciferase activity in U2OS-HRE cells: 1 μM, 1% O2 for 16 hours
Method: Cells were harvested and luciferase activity was measured in cell lysates using a standard luminometer. Data was represented as relative light units (RLU) for each condition.
(§1) Tubulin was used as a loading control.

eIF-2α phosphorylation = assay: Western blot of eIF-2α phosphorylation in U2OS-HRE-luc cells; format: cell-based; conditions: for eIF-2α phosphorylation (western blot): dose range, normoxia or hypoxia 16 hours
Method: Cells were harvested and components of the protein translational machinery were assessed by western blot analysis.
as §1

VEGF [1] = assay: PD endpoint VEGF protein in PC3LN5 orthotopic tumours; format: in vivo, mice; conditions: 75 mg/kg IP daily
Method: (§2) PC3LN5 (10^5 cells) were implanted intraprostatically into mice (Nu) and tumours were allowed to develop for 12 days. Mice received HIF-Inhib1 (75 mg·kg^−1) by IP injection daily for 2.5 weeks. Plasma and tumour samples were taken 24 h after the last dose and analysed by LCMS. Tumours were excised and homogenised, and assessed for PD endpoints HIF-1α and VEGF proteins. Local and distant lymph node metastases were also evaluated.

[2] = system: PC3LN5 orthotopic xenograft; assay: PC3LN5 orthotopic mouse xenograft model: tumour growth, metastasis, body weight, PK; format: in vivo, mice
Method: as §2

[3] = Tolerability of daily IP dosing in mice; conditions: mouse, in vivo
HIF-2α = assay: Western blot of HIF-2α protein induction in hypoxia; format: cell-based; conditions: 1 μM
Method: (§3) U2OS-HRE-luc described in A, were harvested for western blot analysis. FIG. 1B: Western blots show the effects of HIF-Inhib1 on HIF-1α protein in normoxia or hypoxia. Actin was used as a load control. FIG. 1C: Western blots show HIF-1α, phosphorylated ERK1/2 (ERK1/2-P), and AKT/PKB proteins in the absence (−) and presence of 1 μM HIF-Inhib1 in normoxia (norm) or hypoxia (hyp). Actin was used as a load control. FIG. 1D: Western blots show the effects of HIF-Inhib1 (1 μM) on HIF-2α protein levels. UT (untreated), and DMSO treated (−) controls are indicated;

[4] = PK by LCMS in PC3LN5 subcutaneous xenograft mice; format: in vivo; conditions: for concentration at 24 h: intraperitoneal
Method: HIF-Inhib1 was administered IP dose of 100 mg·kg^−1 to Nu mice with PC3LN5 xenografts. Mice were killed at 24 h and xenografts removed for PD/PK analysis. Tumour samples were homogenised with 3× (v/w) PBS and 50 μL extracted by addition of 150 μL of methanol. Tumour extracts were analysed by LCMS using reverse-phase Synergi Polar-RP (Phenomenx, 50×2.1 mm) analytical column and positive ion mode ESI+ MRM.

ERK1/2 and AKt/PKB = assay: Western blot of cellular signaling proteins ERK1/2 and AKt/PKB; format: cell-based; conditions: 1 μM, normoxia or hypoxia
Method: as §3

VEGF [5] = assay: VEGF protein by quantitative ELISA in U2OS-HRE-luc cells; format: cell-based
Method: (§4) Cells were harvested and assessed for VEGF and GLUT1 protein levels using a quantitative ELISA or by western blot analysis respectively. In addition, tumour cells were exposed to 0.5 or 2.5 μM HIF-Inhib1 in hypoxia, and tumour cell migration was measured using a 2-dimensional filter-based migration assay.

[6] = system: panel of tumour cell lines; assay: Growth inhibition / toxicity on tumour cell lines; format: cell-based
[7] = system: HIF activity and HIF-α expression; assay: HIF activity and HIF-α expression in several cancer cell lines; format: cell-based
GLUT1 = GLUT1 protein by western blot in U2OS-HRE-luc cells; format: cell-based; conditions: 0.1-1 μM, hypoxia 16 hours
Method: as §4

[8] = PC3LN5 orthotopic xenograft, 75 mg/kg IP daily

CCC1=C(C[C@@H]2NCCc3cc(OC)c(OC)cc32)C[C@H]2c3ccccc3CCN2C1 [UCL-ONY-003]
inhibition of luciferase activity in U2OS-HRE cells (HIF activity): inactive

CCC1=C(C[C@@H]2NCCc3cc(OC)c(OC)cc32)C[C@@H]2c3ccccc3CCN2C1 [UCL-ONY-002]
inhibition of luciferase activity in U2OS-HRE cells (HIF activity): inactive

CC[C@H]1CN2CCc3cc(OC)c(OC)cc3[C@@H]2C[C@@H]1C[C@H]1NCCc2cc(OC)c(OC)cc21 [emetine, reference compound]
eIF-2α phosphorylation (western blot) (eIF-2α phosphorylation): blocks eIF-2α phosphorylation
HIF activity (relative light units) (HIF activity; emetine 0.017 uM, hypoxia (1% O2) 16 hours): significantly blocked HIF activity

CCC1=C(CC2c3ccc(OC)cc3CCN2S(C)(=O)=O)CC2c3ccccc3CCN2C1 (racemic) [UCL-ONY-004]
inhibition of luciferase activity in U2OS-HRE cells (HIF activity): inactive

CCC1=C(CC2NCCc3cc(OC)c(OC)cc32)CC2c3ccccc3CCN2C1 (stereo not drawn) [Compound I]
VEGF protein in PC3LN5 orthotopic tumours (VEGF [1]): blocked
PK profile in tumours ([2]; 75 mg/kg IP daily, 24 h after last dose, LCMS): good PK profile
Mouse body weight ([2]; 16 days of daily dosing, 75 mg/kg IP): not significantly affected
metastasis (local and distant lymph nodes) [2, 8]: significantly blocked
tumour growth [2, 8]: significantly blocked
MTD [3]: ≤ 100 mg/kg
HIF-2α protein induction in hypoxia (HIF-2α): blocks HIF-2α protein induction in hypoxia
potency in blocking eIF-2α phosphorylation (eIF-2α phosphorylation): 250 to 500 nM
eIF-2α phosphorylation (western blot) (eIF-2α phosphorylation): block eIF-2α phosphorylation
eIF-2α phosphorylation (western blot) (eIF-2α phosphorylation; listed as HIF-Inhib1): blocked eIF-2α phosphorylation in a dose-dependent manner
bioavailability in vivo ([4]; 100 mg/kg IP, PC3LN5 xenograft mice): Good Bioavailability
pharmacokinetic properties in vivo ([4]; mouse, in vivo): favourable pharmacokinetic properties
concentration at 24 h ([4]; mouse, plasma, 100 mg/kg IP, Nu mice with PC3LN5 xenografts, read-out: Plasma concentrations): 70 to 300 nM
concentration at 24 h ([4]; mouse, tumour (PC3LN5 subcutaneous xenograft), 100 mg/kg IP, PC3LN5 subcutaneous xenografts, Nu mice, LCMS, read-out: Tumour concentrations): 1900 to 35000 nM
expression of key cellular signaling proteins ERK1/2 and AKt/PKB (ERK1/2 and AKt/PKB): no significant effect
induction of HIF target protein VEGF (VEGF [5]; 0.1-1 μM, hypoxia 16 hours, ELISA): blocks the induction
potency in blocking VEGF induction in hypoxia (VEGF [5]; hypoxia): 250 to 500 nM
HIF activity (HRE-luciferase activity, RLU) (HIF activity; 0.1-1 μM, hypoxia (1% O2) 16 hours): blocks HIF activity
IC50 (HIF activity; read-out: IC50 for inhibiting HIF activity): ~500 nM
concentrations inhibiting growth of a panel of tumour cell lines [6]: submicromolar
HIF activity and HIF-α expression in response to hypoxia and growth factors [7]: inhibits both HIF activity and HIF-α expression
induction of HIF target protein GLUT1 (GLUT1): blocks the induction
